Test results from patent publication US20240083949A1, “CELL PENETRATING PEPTIDE COMPOSITIONS AND METHODS THEREOF” (The Regents of the University of California, priority 2022, published 2024).
“Also recorded” adds a separate entry of the source. Positions of bridges follow the written chain, without caps; N, C: chain ends. Non-standard residues stand in square brackets, D forms with d. Lys(N3) = [N-]=[N+]=NCCCC[C@H](N)C(=O)O; Pra = C#CC[C@H](N)C(=O)O

What was measured:
[1] = Octanol-water partition assay; assay type: physicochemical
Method: Octanol-water partition assay. For each RB-EPP, pre-mix 250 μl of octanol with 250 μl of water in a 1.5 ml centrifuge tube. 2 μl of RB-EPP was added to the solution at the concentration of 500 μM. After vortex the mixture, centrifuge at the highest speed for 10 min to separate the octanol and water phases. Samples were collected from both phases and quantified by the Analytical HPLC separately.

U87 cells [2] = assay: Confocal imaging of Dye-EPP uptake in U87 cells; assay type: cell-based, human; settings: for ability to enter the cells (intracellular fluorescence): RB-tagged EPPs, ranking among EPP1-7
Method: Confocal Imaging experiments. To image the cells, a Zeiss 880 inverted confocal laser scanning microscope (Carl Zeiss, Germany) was used. Image acquisition and analyses were carried out using the manufacturer's software (ZEN, Carl Zeiss). Quantification of fluorescence intensity in single cells was performed using Fiji software.
Dye-EPP incubation. For general incubation, 300 k U87 cells were seeded in full medium containing 10% FBS and 1% PS in a 35×10 mm petri dish. The cells were incubated overnight in full medium. Stock solution of Dye-EPPs were made in DMSO to reach a concentration of 500 μM. Fresh cell culture medium was used to dilute the stock solution to 500 nM and replace the old medium on day 2. Cells were incubated with RB-EPPs for different time periods, followed by a one-time wash with phenol-free fresh culture medium before measurements.
Concentration gradient experiment. U87 Cells were incubated with RB-EPP 6 at different concentrations (20 nM, 200 nM, 2 μM, 20 μM, 50 μM and 100 μM). After wash with fresh medium once cells were examined by confocal imaging.

a = assay: a
Description: Table printed on a drawing sheet, FIGURES 7A-7B
The patent's description of the figure: FIGS. 7A-7B. (FIG. 7a) PAMPA assay results of EPPs.
First reader's note: Panel a of the sheet; per the description these are PAMPA permeability results, and panel b is a bar graph of the same values.

different cell lines = assay: RB-EPP6 uptake in different cell lines (confocal imaging); assay type: cell-based
Description: Cell lines and cell culture. The human glioblastoma cell line (U87) was gifted from Prof. Wei Wei (Institute For Systems Biology, Seattle). The human monocytic leukemia cell line (THP-1) and the human T-cell leukemia cell line (Jurkat) were purchased from ATCC. The human embryonic kidney cell line (HEK-293T), the human osteosarcoma cell line (U2OS), the human breast cancer cell line (MCF-7), the human metastatic melanoma cell lines (IGR-37, IGR-39, WM266-4 and WM115), the human cervical carcinoma cell line (HeLa), and the human myelogenous leukemia cell line (K562) were gifted from Prof. Yinsheng Wang (UC Riverside). The non-tumorigenic epithelial cell line (MCF 10A) and the human breast adenocarcinoma cell line (MDA-MB-231) were gifted from Prof. Wenwan Zhong (UC Riverside). The canine epithelial kidney cell line (MDCK) and the African green monkey kidney cell line (Vero) were gifted from Prof. Hai Rong (UC Riverside). The human colon carcinoma cell line (HCT116) was gifted from Prof. Xuan Liu (UC Riverside). The human liver carcinoma cell line (HEPG2), the rat liver cell line (MCA7777) and the mouse sarcoma cell line (J774A.1) were gifted from Prof. Joseph Genereux (UC Riverside).
Confocal Imaging experiments. […] Quantification of fluorescence intensity in single cells was performed using Fiji software. […]

U87 cells [3] = assay: Endocytosis inhibitors treatment, RB-EPP6 uptake by flow cytometry; assay type: cell-based, human; settings: 500 nM RB-EPP6, flow cytometry
Method: (§1) Flow cytometry experiments. To measure the RB signal intensity, a NovoCyte flow cytometer (NovoExpress) was used. Quantification of fluorescence intensity in each condition was performed using Novoxpress software. Fifty thousand cells were analyzed for each condition. A green, fluorescent dye used in DNA staining, YOYO was included in all the flow cytometry experiments, serving as a cell live/dead indicator. For the YOYO only group, the cells were treated with trypsin for 5-10 min. After that, cells were fixed in a 1.5 ml centrifuge tube using 4% paraformaldehyde at room temperature for 15 min. Subsequently, fixed cells were washed with PBS once and was permeabilized using 90% cold MeOH on ice for 15 min. Then, cells were incubated with YOYO in phenol-free medium. After half an hour, cells were centrifuged to get rid of YOYO solution and resuspended in fresh phenol-free medium before doing flow cytometry.
Endocytosis inhibitors treatment. U87 Cells were incubated with different endocytosis inhibitors for 1 h respectively. Afterwards, old medium was replaced with medium containing 500 nM RB-EPP 6. After 1 h, a trypsin-EDTA solution (0.05%, Sigma) was added to detach the cells. The cells were collected by centrifugation. Fresh phenol-free medium was added to each condition. Once resuspended, cells were filtered into glass tubes before flow cytometry.

FIBCD1 = target: T1, FIBCD1 (Homo sapiens, UniProt Q8N539); assay: FIBCD1 competition assay; assay type: cell-based; settings: U87 cells, 500 nM RB-EPP6, flow cytometry
T1 construct: endogenous in cells; host or cells: U87 human glioblastoma cells
T1 sequence (Q8N539 1-461): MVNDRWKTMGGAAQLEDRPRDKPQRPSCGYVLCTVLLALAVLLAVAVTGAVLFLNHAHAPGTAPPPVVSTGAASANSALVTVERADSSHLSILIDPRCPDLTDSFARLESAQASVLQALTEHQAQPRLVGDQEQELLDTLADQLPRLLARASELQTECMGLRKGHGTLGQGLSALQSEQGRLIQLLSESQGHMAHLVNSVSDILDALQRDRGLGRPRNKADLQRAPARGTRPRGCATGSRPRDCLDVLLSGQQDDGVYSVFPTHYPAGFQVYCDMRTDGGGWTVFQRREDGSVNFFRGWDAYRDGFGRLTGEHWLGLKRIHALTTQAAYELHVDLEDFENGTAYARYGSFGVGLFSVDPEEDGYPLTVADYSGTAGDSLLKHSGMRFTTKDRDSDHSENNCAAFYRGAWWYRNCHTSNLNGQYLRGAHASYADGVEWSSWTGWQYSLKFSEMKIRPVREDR
Method: as §1
FIBCD1 competition assay. U87 cells were incubated with 500 nM RB-EPP 6 and YOYO, together with FIBCD1 ligands, sodium acetate (SA) at 3.1 mM (1×) and acetylmannosamine (AMA) at 1.6 mM (1×) respectively. After 1 h, trypsin was added to detach the cells. Cell pallets were collected by centrifugation. Fresh phenol-free medium was added to each condition. Once resuspended, cells were filtered into glass tubes before flow cytometry.

U87 cells [4] = assay: Heparin binding assay, RB-EPP6 uptake by flow cytometry; assay type: cell-based, human; settings: heparin 10-200 μg/ml
Method: as §1, with “cytometry. Heparin binding assay. […] A trypsin-EDTA solution (0.05%, Sigma) was added to detach the cells. The cells were collected by centrifugation. Fresh phenol-free medium was added to each condition. Once resuspended, cells were filtered into glass tubes before flow cytometry.” for “cytometry.”

Compound | Pe (a) [×10⁻⁶ cm/s] | effect of inhibitor on RB-EPP6 uptake (U87 cells [3]) | further results
RB-cy(YTYYT) [RB-EPP3] | – | – | hydrophobicity (octanol partitioning) [1]: most hydrophobic; ability to enter the cells (intracellular fluorescence) (U87 cells [2]; U87 cells, confocal imaging): worst
c[Pra-Thr-Tyr-Tyr-Thr-Tyr-Az4] ([Pra]TYYTY[Lys(N3)]; triazole N-C) [EPP2] | 0.46872 | – | –
c[Pra-Ser-Tyr-Tyr-Ser-Tyr-Az4] ([Pra]SYYSY[Lys(N3)]; triazole N-C) [EPP7] | 0.63243 | – | –
c[Pra-Tyr-Ser-Tyr-Tyr-Ser-Az4] ([Pra]YSYYS[Lys(N3)]; triazole N-C) [EPP6] [listing 1 of 2 here] | – | – | uptake in different cell lines (different cell lines): able to enter a wide array of human cancer and noncancer cells, as well as non-human cells; delivery of different fluorescent dye cargo molecules (U87 cells [2]; EPP6 conjugated to different dyes incl. AF555 and AF647, U87 cells): could bring all these cargo molecules into U87 cells; fluorescence intensity in the cells compared with TAT peptide (U87 cells [2]; RB tag, U87 cells, confocal imaging): ~2 ×; ability to enter the cells (intracellular fluorescence) (U87 cells [2]; U87 cells, confocal imaging): highest efficiency; concentration-dependent uptake (fluorescence signal) (U87 cells [2]; U87 cells, 20 nM to 100 μM): higher fluorescence signals across a wide range
cy(YYTYT) [EPP1] | 0.16201 | – | –
c1ccc2c(c1)Nc1ccccc1S2 [phenothazine] | – | did not affect the uptake | –
CC(=O)NC1C(O)OC(CO)C(O)C1O (stereo not drawn) [acetylmannosamine] | – | – | effect of FIBCD1 ligand on RB-EPP6 uptake (FIBCD1): inhibit RB-EPP6 uptake in a concentration-dependent manner
CCCCC[C@@H](O)[C@H]1C(=O)O[C@H](C)[C@@H](O)/C=C/C=C/C=C/C=C/C=C(\C)[C@@H](O)C[C@H](O)C[C@H](O)C[C@H](O)C[C@H](O)C[C@H](O)C[C@@H]1O [filipin] | – | did not inhibit | –
O=C1NC(=NS(=O)(=O)c2cccc3ccccc23)S/C1=C\c1ccc(Br)cc1 [Pitstop 2] | – | did not affect the uptake | –
c[Pra-Tyr-Ser-Tyr-Tyr-Ser-Az4] ([Pra]YSYYS[Lys(N3)]; triazole N-C) [EPP6] [listing 2 of 2 here] | 0.234 | – | –
C=C1[C@@H](C)[C@H]2[C@H](Cc3ccccc3)NC(=O)[C@]23[C@H](OC(C)=O)/C=C/[C@@](C)(O)C(=O)[C@@H](C)C/C=C/[C@H]3[C@@H]1O [cytochalasin D] | – | significantly decreased | –
heparin | – | – | effect of heparin on RB-EPP6 uptake (U87 cells [4]): did not affect; also recorded: no inhibitory effect
O=C(N/N=C/c1ccc(O)c(O)c1)c1cc2ccccc2cc1O [Dynasore] | – | almost completely suppressed | –
cy(TTTTT) [EPP5] | 1.8954 | – | –
methyl-β-cyclodextrin | – | did not inhibit | –
c[Pra-Tyr-Thr-Tyr-Tyr-Thr-Az4] ([Pra]YTYYT[Lys(N3)]; triazole N-C) [EPP3] | 0.11206 | – | –
